Series [1] can be described thus: Water solubility. Type of series: physicochemical. As to conditions: in H2O; for solubility: water.
In series [2] the test system is lung carcinoma (A-549). The experiment in a line: Cytotoxicity Assays Method C, A-549. Type of series: cell-based. Conditions: A549, 50% reduction in cell number after 72 hr of incubation, read-out: IC50 A549.
The subject of series [3] is epidermoid carcinoma of the nasopharynx (KB). Put plainly: Cytotoxicity Assays Method C, KB. Type of series: cell-based. Conditions: KB, 50% reduction in cell number after 72 hr of incubation, read-out: IC50 KB.
Series [4] concerns p-gp-expressing epidermoid carcinoma of the nasopharynx (KB-VIN). Put plainly: Cytotoxicity Assays Method C, KB-VIN. It counts as cell-based. As to conditions: 50% reduction in cell number after 72 hr of incubation. An excerpt: Cytotoxicity Assays Method C (KB, KB-VIN, AS49, HCT-8, PC-3) [K. H. Lee et. al. Planta Med. 54, 308-312 (1998), Monk A et. al. J. Natl. Cancer Inst. 83, 757-766 (1991).] The cell lines included epidermoid caninoma of the nasopharynx (KB), p-gp-expressing epidermoid caninoma of the nasopharynx (KB-VIN), lung carcinoma (A-549), ileocecal carinoma (HCT-8) and prostate cancer (PC-3) cell lines.

Series [5] relates to prostate cancer (PC-3). Put plainly: Cytotoxicity Assays Method C, PC-3. It counts as cell-based. As to conditions: PC-3, 50% reduction in cell number after 72 hr of incubation, read-out: IC50 PC-3.
For series [6], the system named is ileocecal carcinoma (HCT-8). Put plainly: Cytotoxicity Assays Method C, HCT-8. Conditions: HCT-8, 50% reduction in cell number after 72 hr of incubation, read-out: IC50 HCT-8. It counts as cell-based.

Here are results for 22 compounds from patent publication US7332615B2, “Hydrophilic analogs of 4,8-dihydrobenzodithiophene-4,8-diones as anticancer agents” (Industrial Technology Research Institute, priority 2004, dated 2008).

SMILES strings stand for the structures. pIC50: −log10 of the molar value. Where a name gives a salt, the structure may show the parent alone. Read-outs that look alike come from different tables or passages of the source.

Take `CC(O)c1cc2c(s1)C(=O)c1sccc1C2=O` (stereo not drawn) [Compound 1b, reference compound]: the “Solubility (water solubility)” value in series [1] is reported as 9.6 × 10^−3 mg/1 mL H2O.
In general, pIC50 refers to the IC50 on a negative log10 scale, so that one unit is a factor of ten. Regarding `COc1cccc2c1C(=O)c1c(O)c3c(c(O)c1C2=O)C[C@@](O)(C(=O)CO)C[C@@H]3O[C@H]1C[C@H](N)[C@H](O)[C@H](C)O1` [Doxorubincin, reference compound], the results for the negative-log IC50 (pIC50) in series [2], in series [3] and in series [4] were 6.74, 6.74 and 5.30, respectively.
In general, solubility refers to the concentration that dissolves in the medium under given conditions. High values mean much dissolved substance, low ones little dissolved substance. In series [1], `O=C([O-])CCC(=O)OCc1cc2c(s1)C(=O)c1sccc1C2=O.[Na+]` [IIa-1-Na, Sodium mono-[1-(4,8-dioxo-4,8-dihydrobenzo[1,2-b:5,4-b′]dithiophen-2-yl)-methyl]succinate] had a solubility of at least 10000 µg/mL. Also, the negative logarithm of the IC50 (pIC50) in series [5] (72 h) is 5.91; in series [6] (Homo sapiens, HCT-8, 72 h), 5.49; in series [2] (Homo sapiens, A549, 72 h) it was 5.42; in series [3] (72 h), 5.68; in series [4], 5.42.
In series [1], `O=C([O-])CCCC(=O)OCc1cc2c(s1)C(=O)c1sccc1C2=O.[Na+]` [IIa-2-Na, Sodium mono-[1-(4,8-dioxo-4,8-dihydrobenzo[1,2-b:5,4-b′]dithiophen-2-yl)methyl]pentanedioate] registered a solubility of at least 1800 µg/mL. Further, the pIC50 is 6.05 in series [5] (72 h); 6.19 in series [6] (Homo sapiens, HCT-8, 72 h); 6.03 in series [2] (Homo sapiens, A549, 72 h); 5.76 in series [3] (72 h); 5.88 in series [4].
For `CC(OC(=O)CCC(=O)[O-])c1cc2c(s1)C(=O)c1sccc1C2=O.[Na+]` (stereo not drawn) [IIb-1-Na, Sodium mono-[1-(4,8-dioxo-4,8-dihydroxybenzo-[1,2-b;5,4-b′]dithiophen-2-yl)-ethyl]succinate], the solubility in series [1] is at least 3000 µg/mL. Besides, the pIC50 in series [5] (72 h) was 6.43; in series [6] (Homo sapiens, HCT-8, 72 h), 5.74; in series [2] (Homo sapiens, A549, 72 h) it was 6.33; in series [3] (72 h) it was 6.26; in series [4], 6.33.
`CC(OC(=O)CCCC(=O)[O-])c1cc2c(s1)C(=O)c1sccc1C2=O.[Na+]` (stereo not drawn) [IIb-2-Na, Sodium mono-[1-(4,8-dioxo-4,8-dihydroxybenzo[1,2-b;5,4-b′]dithiophen-2-yl)-ethyl]pentanedioate] returned a solubility in series [1] of at least 9600 µg/mL. Besides, the negative-log IC50 (pIC50) in series [5] (72 h) was 6.06; in series [6] (Homo sapiens, HCT-8, 72 h), 5.72; in series [2] (Homo sapiens, A549, 72 h), 5.72; in series [3] (72 h), 5.87; in series [4], 5.95.
In the case of `O=C(O)COCc1cc2c(s1)C(=O)c1sccc1C2=O` [IVa, 4,8-dioxo-4,8-dihydroxybenzo[1,2-b:5,4-b′]-dithiophen-2-yl-methoxy acetic acid], the negative logarithm of the IC50 (pIC50) was 5.98 in series [5] (72 h); 5.68 in series [6] (Homo sapiens, HCT-8, 72 h); 5.61 in series [2] (Homo sapiens, A549, 72 h); 5.44 in series [3] (72 h); 5.61 in series [4] (Homo sapiens, KBVIN, 72 h).
For `O=C([O-])COCc1cc2c(s1)C(=O)c1sccc1C2=O.[Na+]` [IVa-Na, Sodium 4,8-dioxo-4,8-dihydroxybenzo[1,2-b:5,4-b′]-dithiophen-2-yl-methoxy acetate], the solubility in series [1] is at least 9600 µg/mL.
Same read-out and setting: then `CC(OCC(=O)[O-])c1cc2c(s1)C(=O)c1sccc1C2=O.[Na+]` (stereo not drawn) [IVb-Na, Sodium 1-(4,8-dioxo-4,8-dihydroxybenzo[1,2-b:5,4b′]-dithiophen-2-yl-ethoxy)-acetate], with at least 3200 µg/mL.
The compound `CC(OCC(=O)[O-])c1cc2c(s1)C(=O)c1ccsc1C2=O.[Na+]` (stereo not drawn) [IX-Na, Sodium 1-(4,8-dioxo-4,8-dihydroxybenzo[1,2-b:4,5-b′]-dithiophen-2-yl-ethoxy)-acetate] came in with a solubility in series [1] of at least 6000 µg/mL. Further, the negative-log IC50 (pIC50) in series [5] was 6.85; in series [6], 6.66; in series [2] it was 6.59; in series [3], 5.95; in series [4], 6.00.
Consider `CC[C@]1(O)C[C@H]2CN(CCc3c([nH]c4ccccc34)[C@@](C(=O)OC)(c3cc4c(cc3OC)N(C=O)[C@H]3[C@@](O)(C(=O)OC)[C@H](OC(C)=O)[C@]5(CC)C=CCN6CC[C@]43[C@@H]65)C2)C1` [VCR, reference compound], for which the figures for the pIC50 in series [2], in series [3] and in series [4] were 7.40, 8.00 and 5.27, respectively.
For the compound `CC(OC(=O)CCC(=O)[O-])c1cc2c(s1)C(=O)c1ccsc1C2=O.[Na+]` (stereo not drawn) [VII-1-Na, Sodium mono-[1-(4,8-dioxo-4,8-dihydroxybenzo-[1,2-b;4,5-b′]dithiophen-2-yl)-ethyl]succinate], in series [1], the solubility was at least 10000 µg/mL. The pIC50 in series [5] (72 h) was 6.14; in series [6] (Homo sapiens, HCT-8, 72 h), 5.84; in series [2] (Homo sapiens, A549, 72 h), 5.65; in series [3] (72 h), 5.67; in series [4], 5.71.
As for `CC(OC(=O)CCCC(=O)[O-])c1cc2c(s1)C(=O)c1ccsc1C2=O.[Na+]` (stereo not drawn) [VII-2-Na, Sodium mono-[1-(4,8-dioxo-4,8-dihydroxybenzo[1,2-b;4,5-b′]dithiophen-2-yl)-ethyl]pentanedioate], the solubility in series [1] was at least 3400 µg/mL. In addition, the negative-log IC50 (pIC50) in series [5] (72 h) was 7.00; in series [6] (Homo sapiens, HCT-8, 72 h) it was 6.06; in series [2] (Homo sapiens, A549, 72 h), 5.60; in series [3] (72 h), 6.35; in series [4], 6.17.
Regarding `COc1cc([C@@H]2c3cc4c(cc3[C@@H](O[C@@H]3O[C@@H]5CO[C@@H](C)O[C@H]5[C@H](O)[C@H]3O)[C@H]3COC(=O)[C@H]23)OCO4)cc(OC)c1O` [VP-16, reference compound], the negative logarithm of the IC50 (pIC50) in series [2] is 5.87; in series [3] it was 5.32; in series [4] it was under 5.00.
With `O=C(O)c1cc2c(s1)C(=O)c1sccc1C2=O` [XI, 4,8-dioxo-4,8-dihydrobenzo-[1,2-b;5,4-b′]dithiophene-2-carboxylic acid], the negative-log IC50 (pIC50) in series [5] was 4.87; in series [6] (Homo sapiens, HCT-8, 72 h) it was 4.43; in series [2] it was 4.52; in series [3] (72 h) it was 4.42; in series [4] (Homo sapiens, KBVIN, 72 h), 4.42.
As for `O=C(O)c1cc2c(s1)C(=O)c1sccc1C2=O` [XI-NH4, Ammonium 4,8-dioxo-4,8-dihydrobenzo-[1,2-b:5,4-b′]dithiophene-2-carboxylate], the solubility in series [1] is at least 10000 µg/mL. Further, the pIC50 in series [5] was under 4.15; in series [6], under 4.15; in series [2] it was under 4.15; in series [3], 4.44; in series [4], 4.44.
Compound `O=C([O][Na+])c1cc2c(s1)C(=O)c1sccc1C2=O` [XI-Na, Sodium 4,8-dioxo-4,8-dihydrobenzo-[1,2-b:5,4-b′]dithiophene-2 carboxylate] gave a solubility in series [1] of at least 10000 µg/mL.
Still for that read-out and setting: with `C[C@H](NC(=O)c1cc2c(s1)C(=O)c1sccc1C2=O)C(=O)[O-].[Na+]` [XIII-Na, Sodium (L)-2-{(4,8-dioxo-4,8-dihydrobenzo-[1,2-b;5,4-b′]dithiophene-2-carbonyl)-amino}-propionate] the figure was at least 6600 µg/mL.
For `O=C(O)c1cc2c(s1)C(=O)c1ccsc1C2=O` [XIV, 4,8-dioxo-4,8-dihydrobenzo-[1,2-b;4,5-b′]dithiophene-2-carboxylic acid], the negative logarithm of the IC50 (pIC50) is 4.60 in series [5] (72 h); 4.36 in series [6] (Homo sapiens, HCT-8, 72 h); 4.35 in series [2]; 4.42 in series [3] (72 h); 4.42 in series [4] (Homo sapiens, KBVIN, 72 h).
As for `O=C(O)c1cc2c(s1)C(=O)c1ccsc1C2=O` [XIV-NH4, Ammonium 4,8-dioxo-4,8-dihydrobenzo-[1,2-b;4,5-b′]dithiophene-2-carboxylate], the solubility in series [1] was 4000 µg/mL. In addition, the pIC50 was 4.88 in series [5]; 4.58 in series [6]; 4.79 in series [2]; 4.44 in series [3]; 4.44 in series [4].
Take `C[C@H](NC(=O)c1cc2c(s1)C(=O)c1ccsc1C2=O)C(=O)[O-].[Na+]` [XVI-Na]: the solubility in series [1] is at least 3200 µg/mL. The pIC50 in series [5] (72 h) was 6.77; in series [6] (Homo sapiens, HCT-8, 72 h) it was 6.29; in series [2] (Homo sapiens, A549, 72 h), 6.27; in series [3] (72 h) it was 5.75; in series [4] (Homo sapiens, KBVIN, 72 h), 6.27.
In series [1], `CN(C)CCNC(=O)c1cc2c(s1)C(=O)c1sccc1C2=O` [XVII-H3PO4, 4,8dioxo-4,8-dihydrobenzo[1,2-b;5,4-b′]dithiophene-2-carboxylate-(2-dimethyl-aminoethyl)-amide phosphoric acid salt] displayed a solubility of at least 2000 µg/mL.
